In patent US20150125471A1, “METHOD AND PHARMACEUTICAL COMPOSITION FOR USE IN THE TREATMENT AND DIAGNOTIC OF ANEMIA OF INFLAMMATION” (INSERM (INSTITUT NATIONAL DE LA SANTE ET DE LA RECHERCHE …, priority 2012, published 2015):

What was measured:
[1] = tested on: STAT3 phosphorylation in HepG2 cells; assay: STAT3 phosphorylation in HepG2 cells by immunoblot; type: cell-based, human; conditions: HepG2, 50 ng/ml
Protocol: (§1) Human hepatoma cells (HepG2; ATCC) were cultured in high glucose Dulbecco's Modified Eagle Media (DMEM) supplemented with 10% fetal calf serum (FCS) and antibiotics. For stimulation experiments, cells were transferred to 6-well dishes and starved with DMEM containing 0.1% FCS for 5 hours before exposure to IL-6 (50 ng/ml; R&D Systems) and/or activin A (50 ng/ml; R&D) or activin B (50 ng/ml; R&D) for 1 h30, 2 h30, 4 h, 6 h, and 24 h. The pharmacological inhibitor LDN-193189 (100 nM; Axon Medchem), ALK2-Fc (1 μg/mL; R&D), or ALK3-Fc (1 μg/mL; R&D) were added 30 min prior to activin B exposure.
(§2) Livers were homogenized in a FastPrep®-24 Instrument (MP Biomedicals) for 15 sec at 4 m/s. The lysis buffer (50 mM Tris-HCl, pH 8, 150 mM NaCl, 5 mM EDTA, pH 8, 0.1% NP-40) included inhibitors of proteases (complete protease inhibitor cocktail, Roche Applied Science) and of phosphatases (phosphatase inhibitor cocktail 2, Sigma-Aldrich). Liver proteins were quantified using the Bio-Rad Protein Assay kit. HepG2 cells and mouse primary hepatocytes were lysed in RIPA buffer (Sigma-Aldrich) supplemented with protease and phosphatase inhibitors, and proteins were quantified using the Bio-Rad DC Protein Assay.
Fresh protein extracts were diluted in Laemmli buffer (Sigma-Aldrich), incubated for 5 minutes at 95° C., and subjected to SDS-PAGE. Proteins were then transferred to PVDF membranes (Millipore). […]

[2] = tested on: Hepcidin (Hamp) mRNA in mouse primary hepatocytes; assay: Hepcidin mRNA expression in mouse primary hepatocytes by qRT-PCR; type: cell-based; conditions: for hepcidin mRNA increase / hepcidin −ΔΔCt ±SD: primary hepatocytes from Bmp6-deficient mice, 50 ng/ml each, 2 h30
Protocol: (§3) Mouse primary hepatocytes were isolated from ten-week-old Bmp6-deficient mice using a collagenase perfusion protocol (Lin et al., 2007). The viable hepatocyte population was further purified by a Percoll gradient centrifugation. Hepatocytes were plated in 6-well collagen-coated plates at 7×10^5 cells per well and cultured in DMEM supplemented with 10% FCS and antibiotics for 18 hours. After serum starvation for 5 hours in 0.1% FCS, hepatocytes were stimulated with IL-6 (50 ng/ml) and/or activin B (50 ng/ml), or vehicle, in the presence or absence of LDN-193189 (l μM), and RNA was harvested 1, 2, 3, and 4 hours later.
(§4) Total RNA from mouse liver, human hepatoma cells, or mouse primary hepatocytes, was extracted using Trizol (Invitrogen). cDNA was synthesized using MMLV-RT (Promega). Quantitative PCR (Q-PCR) reactions were prepared with LightCycler® 480 DNA SYBR Green I Master reaction mix (Roche Diagnostics) and run in duplicate on a LightCycler® 480 Instrument (Roche Diagnostics).
(§5) Means of −ΔCt (i.e., Ct Hprt−Ct target)±standard deviation (SD) were calculated for the different groups of mice. Means of −ΔCt values between LPS-challenged and unchallenged mice were compared by Student's t-tests. Because, in addition to inflammation, mouse genotype (wild-type versus Bmp6−/−) may also affect mean −ΔCt values, we used two-way analysis of variance (ANOVA) to test for the effect of both factors and their interaction. Differences between mean −ΔCt at a specific time point after LPS administration and mean −ΔCt at time 0 (−ΔΔCt±SD) were also calculated and point estimations of fold changes induced by LPS administration obtained by raising 2 to the power −ΔΔCt (Yuan et al., 2006). For HepG2 cells or mouse primary hepatocytes, −ΔΔCt values (i.e., −ΔCt treatment+ΔCt vehicle)±SD were obtained for each condition and means of −ΔΔCt were compared to 0 by Student's t-tests.

[3] = tested on: Stat3 signaling in mouse primary hepatocytes; assay: Stat3 signaling in mouse primary hepatocytes by immunoblot; type: cell-based; conditions: 50 ng/ml, 2 h30
Protocol: as §3, §2
(§6) Fresh protein extracts were diluted in Laemmli buffer (Sigma-Aldrich), incubated for 5 minutes at 95° C., and subjected to SDS-PAGE. […]

[4] = tested on: Hepcidin (Hamp) mRNA in HepG2 cells; assay: Hepcidin mRNA expression in HepG2 cells by qRT-PCR; type: cell-based, human; conditions: for hepcidin mRNA expression increase / hepcidin −ΔΔCt ±SD: HepG2 cells, 50 ng/ml each, peak levels 4 hours after treatment
Protocol: as §1, §4, §5

[5] = tested on: SMAD1/5/8 phosphorylation in HepG2 cells; assay: SMAD1/5/8 phosphorylation in HepG2 cells by immunoblot; type: cell-based, human; conditions: 2 h30, 4 or 6 hours; for SMAD1/5/8 phosphorylation: HepG2, 50 ng/ml
Protocol: as §1, §2
Fresh protein extracts were diluted in Laemmli buffer (Sigma-Aldrich), incubated for 5 minutes at 95° C., and subjected to SDS-PAGE. Proteins were then transferred to PVDF membranes (Millipore). Membranes were blocked with 5% of dry milk in TBS-T buffer (10 mM Tris-HCl, pH 7.5, 150 mM NaCl, 0.15% Tween 20). They were incubated with rabbit antibodies to phospho-Smad1/5/8 (Cell Signaling Technology) or phospho-Stat3 (Cell Signaling) at 4° C. overnight, and washed with TBS-T buffer. Following incubation with a goat anti-rabbit IgG antibody (Cell Signaling) conjugated to horseradish peroxidase (HRP), enzyme activity was visualized by an ECL-based detection system (Millipore). Blots were then stripped and reprobed with rabbit antibodies to Smad5 (Epitomics) or Stat3 (Cell Signaling) 2 hours at RT before incubation with the goat anti-rabbit HRP-linked antibody.

BMP type I receptors = conditions: 100 nM; cited from earlier work
hepcidin expression = conditions: cultured hepatoma-derived cells, zebrafish, mouse, or rat; cited from earlier work
[6] = tested on: Smad1/5/8 phosphorylation in mouse primary hepatocytes; assay: Smad1/5/8 phosphorylation in mouse primary hepatocytes by immunoblot; type: cell-based
Protocol: as §3, §2, §6

For “IL-6: interleukin-6 cytokine, R&D Systems”, the STAT3 phosphorylation [1] was “induces STAT3 phosphorylation”, the “hepcidin mRNA increase” value [2] was “about 1.8 fold” and the “hepcidin −ΔΔCt ±SD” value [2] was 0.82±0.24. For the same molecule, the Stat3 signaling [3] was “strong activation of Stat3 signaling”, the “hepcidin mRNA expression increase” value [4] was “about 6 fold” and the “hepcidin −ΔΔCt ±SD” value [4] was 2.63±0.26.

With activin A the SMAD1/5/8 phosphorylation [5] was “not shared with activin A”.

With `c1ccc2c(-c3cnn4cc(-c5ccc(N6CCNCC6)cc5)cnc34)ccnc2c1` [LDN-193189, reference compound] the “effect on Smad1/5/8 phosphorylation induced by activin B” value ([5]; HepG2, 100 nM added 30 min before activin B (50 ng/ml)) was “completely abolished”, the “effect on upregulation of Hamp gene expression by activin B” value ([2]; mouse primary hepatocytes, 1 μM, activin B 50 ng/ml) was “prevented” and the “effect on induction of hepcidin gene expression by activin B” value ([4]; HepG2, 100 nM added 30 min before activin B (50 ng/ml), 2 h30, 4 or 6 hours after stimulation) was “completely abolished”. The “activity of BMP type I receptors” value (BMP type I receptors) was “inhibit activity of BMP type I receptors”, the “induction of hepcidin expression by IL-6, turpentine, or group A streptococcal peptidoglycan-polysaccharide” value (hepcidin expression) was “blocks induction of hepcidin expression” and the “effect on Smad1/5/8 phosphorylation induced by activin B” value ([6]; 1 μM, activin B 50 ng/ml for 2 h30) was “prevented induction of Smad1/5/8 phosphorylation”.

For activin B, the SMAD1/5/8 phosphorylation [5] was “induces the phosphorylation of the SMAD effectors 1, 5 and 8”, the “hepcidin mRNA increase” value [2] was “about 7 fold” and the “hepcidin −ΔΔCt ±SD” value [2] was 2.81±0.92. The “hepcidin mRNA expression increase” value [4] was “about 13 fold”, the “hepcidin −ΔΔCt ±SD” value [4] was 3.71±0.46 and the SMAD1/5/8 phosphorylation ([6]; 50 ng/ml, 2 h30) was “induces”.
